Experimental findings from PubChem BioAssay (NCI) are described below.

Test systems include NCI-H522 lung; SF-539 CNS; SK-MEL-5 melanoma; SNB-75 CNS; OVCAR-5 ovarian; SNB-19 CNS; SW-620 colon; NCI-H23 lung; UO-31 renal; SR leukemia.
What all share (test): inhibition of tumour cell growth, NCI panel, 48 h

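Dose response: 5 concentrations. Exposure: 48 h. Format: 96-well plates. Endpoint: linear interpolation; highest concentration if not reached. At the TGI there is no net growth.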 Some results are limits rather than exact numbers.

Take `NC(=O)N1N=C2c3ccccc3CC[C@@H]2C1c1ccccc1` (some centres undefined): the TGI with NCI-H522 lung, with SF-539 CNS, with SK-MEL-5 melanoma, in the assay with SNB-75 CNS, with OVCAR-5 ovarian and with SNB-19 CNS was more than 100 µM each time. Moreover, the TGI with SW-620 colon, in the assay on NCI-H23 lung and in the assay with UO-31 renal was more than 100 µM throughout.

`CC(=O)C(=[N+]=[N-])C(=O)OC(C)(C)C#N`: the TGI in the assay on SF-539 CNS is more than 10 µM; with SR leukemia, more than 10 µM; in the assay with SK-MEL-5 melanoma, more than 10 µM; with SNB-75 CNS, 8.12 µM; in the assay with OVCAR-5 ovarian, more than 10 µM; with SNB-19 CNS, more than 10 µM. For the same molecule, the TGI in the assay on SW-620 colon, in the assay with NCI-H23 lung and with UO-31 renal was more than 10 µM each time.

Turning to `N#Cc1c(-c2ccco2)cc(-c2ccc(NCc3nc4ccccc4[nH]3)cc2)nc1N`, the TGI is 55.5 µM in the assay on NCI-H522 lung; 47.6 µM in the assay with SF-539 CNS; 29.9 µM in the assay on SK-MEL-5 melanoma; 91.6 µM in the assay with SNB-75 CNS; more than 100 µM in the assay on OVCAR-5 ovarian; more than 100 µM in the assay on SNB-19 CNS. Besides, the figures for the TGI in the assay with SW-620 colon, in the assay with NCI-H23 lung and with UO-31 renal were more than 100 µM, 48.8 µM and 58.7 µM, respectively.

In the case of `Clc1ccc(Oc2ccc(N=Cc3ccc(Cl)cc3Cl)cc2Cl)cc1`, the TGI is 92 µM in the assay on NCI-H522 lung; 65.1 µM in the assay on SF-539 CNS; more than 100 µM in the assay with SK-MEL-5 melanoma; 87.4 µM in the assay with SNB-75 CNS; more than 100 µM in the assay with OVCAR-5 ovarian; more than 100 µM in the assay with SNB-19 CNS. The TGI with SW-620 colon, in the assay on NCI-H23 lung and with UO-31 renal was more than 100 µM throughout.

As for `CCCc1c(OC)c(=O)c2c(OC)cc(OC)c3c4c(OC)cc(OC)c5c(=O)c(OC)c(CCC)c(c1c23)c54`, the TGI came out at 30.9 µM in the assay with SF-539 CNS; 22.6 µM in the assay on SK-MEL-5 melanoma; 36 µM in the assay with SNB-75 CNS; 29 µM in the assay on OVCAR-5 ovarian; 34.6 µM in the assay on SNB-19 CNS; 33.7 µM in the assay with SW-620 colon. The TGI in the assay on NCI-H23 lung is 29.5 µM; in the assay with UO-31 renal it was 28.9 µM.

Regarding `O=c1oc2ccccc2c(O)c1C(c1ccco1)c1c(O)c2ccccc2oc1=O`, the TGI with NCI-H522 lung was 41.8 µM; in the assay on SK-MEL-5 melanoma, more than 100 µM; with SNB-75 CNS, 95.9 µM; in the assay with SNB-19 CNS it was more than 100 µM; in the assay with SW-620 colon it was 49.8 µM; in the assay with NCI-H23 lung it was more than 100 µM. Further, the TGI with UO-31 renal amounted to 43.9 µM.

Consider `Cc1cn(C2CCC(/C=N\O)O2)c(=O)[nH]c1=O` (centres undefined), for which the TGI in the assay on SF-539 CNS, in the assay with SR leukemia, with SK-MEL-5 melanoma, with SNB-75 CNS, in the assay with OVCAR-5 ovarian and in the assay on SNB-19 CNS was more than 100 µM throughout. Also, the TGI in the assay on SW-620 colon, in the assay with NCI-H23 lung and with UO-31 renal was more than 100 µM in each case.

In the case of `CC1=C2C(=O)[C@H]3[C@@H](CC=C4C[C@@H](O)CC[C@@]43C)[C@@H]2CC[C@]12O[C@@H]1C[C@H](C)CN[C@H]1[C@H]2C`, the TGI in the assay with NCI-H522 lung is more than 59.6 µM; in the assay on SF-539 CNS, more than 61.6 µM; with SK-MEL-5 melanoma it was more than 61.9 µM; with SNB-75 CNS it was more than 54.4 µM; with OVCAR-5 ovarian it was more than 100 µM; in the assay with SNB-19 CNS, more than 57.6 µM. The TGI with SW-620 colon was more than 79.9 µM; with NCI-H23 lung it was more than 58 µM; with UO-31 renal it was more than 54.3 µM.

On to `CC1(C23CC4CC(CC(C4)C2)C3)n2c(=O)n(-c3ccccc3)c(=O)n2C1(C)C12CC3CC(CC(C3)C1)C2` (centres undefined), for which the TGI in the assay with SF-539 CNS, in the assay with SR leukemia, with SK-MEL-5 melanoma, in the assay with SNB-75 CNS, in the assay with OVCAR-5 ovarian and in the assay with SNB-19 CNS was more than 100 µM in each case. Moreover, the TGI with SW-620 colon, in the assay with NCI-H23 lung and with UO-31 renal was more than 100 µM in each case.

For `O=C1CCC[C@]2(CCC[C@@H](O)C2)N1`, the TGI in the assay with NCI-H522 lung, with SF-539 CNS, with SK-MEL-5 melanoma, in the assay on SNB-75 CNS, in the assay with OVCAR-5 ovarian and in the assay on SNB-19 CNS was more than 100 µM in each case.

Consider `COc1nc(SC)nc2c1cnn2C1OC(C(O)CO)C(OC)C1O` (centres undefined), for which the TGI in the assay on NCI-H522 lung, in the assay on SF-539 CNS, in the assay with SK-MEL-5 melanoma, in the assay with SNB-75 CNS, in the assay on OVCAR-5 ovarian and in the assay on SNB-19 CNS was more than 100 µM throughout. The TGI in the assay with SW-620 colon, in the assay on NCI-H23 lung and with UO-31 renal was more than 100 µM throughout.

Turning to `CC1CC[C@@]2(OC1)OC1C[C@H]3[C@@H]4C/C(=N\N(C)C)[C@@]5(O)CC(O)CC[C@]5(C)[C@H]4CC[C@]3(C)C1[C@@H]2C` (some centres undefined), the TGI was more than 100 µM with SF-539 CNS; 54.6 µM in the assay with SR leukemia; more than 100 µM in the assay with SK-MEL-5 melanoma; more than 100 µM with OVCAR-5 ovarian; more than 100 µM in the assay on SNB-19 CNS; more than 100 µM with SW-620 colon. The TGI in the assay with NCI-H23 lung and in the assay with UO-31 renal was more than 100 µM throughout.

Regarding `COc1cc(C2C(Cl)C(=O)N2NC(=O)c2ccccc2O)ccc1O` (centres undefined), the TGI with NCI-H522 lung, with SF-539 CNS, in the assay with SK-MEL-5 melanoma, in the assay on SNB-19 CNS, in the assay on NCI-H23 lung and in the assay with UO-31 renal was more than 100 µM throughout.

For the molecule `O=C(O)C1CCCN1Cc1cc2ccccc2c2ccccc12` (centres undefined), the TGI with NCI-H522 lung, in the assay with SF-539 CNS, in the assay with SK-MEL-5 melanoma, in the assay on SNB-75 CNS, with OVCAR-5 ovarian and in the assay with SNB-19 CNS was more than 100 µM throughout. In addition, the TGI in the assay with SW-620 colon, in the assay on NCI-H23 lung and in the assay on UO-31 renal was more than 100 µM in each case.

Consider `COc1ccc(N=C(C)c2ccncc2)cc1`, for which the TGI is more than 100 µM in the assay on NCI-H522 lung; 61.4 µM in the assay on SF-539 CNS; more than 100 µM with SK-MEL-5 melanoma; more than 100 µM in the assay with SNB-75 CNS; more than 100 µM in the assay with OVCAR-5 ovarian; more than 100 µM in the assay on SNB-19 CNS. Moreover, the TGI in the assay on SW-620 colon, in the assay on NCI-H23 lung and with UO-31 renal was more than 100 µM throughout.

With `Cn1c(=O)cc(NCc2ccc(Cl)cc2)[nH]c1=O`, the TGI was more than 100 µM in the assay on NCI-H522 lung; more than 100 µM in the assay with SF-539 CNS; more than 100 µM in the assay on SK-MEL-5 melanoma; 84.5 µM with SNB-75 CNS; more than 100 µM with OVCAR-5 ovarian; more than 100 µM in the assay on SNB-19 CNS. Besides, the TGI in the assay with SW-620 colon, in the assay with NCI-H23 lung and with UO-31 renal was more than 100 µM each time.
